Results as given in ChEMBL document CHEMBL4814074 (Bioorg Med Chem Lett, 2021).

test system: Lassa virus; assay: Antiviral activity against Lassa virus by plaque reduction assay; assay type: functional, organism-based; settings: Mammarenavirus lassaense

| SMILES | EC50 [nM] | EC90 [nM] |
| --- | --- | --- |
| Cc1cc2ncc(-c3ccc(OC(C)(C)C)cc3)n2cc1-c1ccc(OC(C)C)cc1 | < 3.3 | < 3.3 |
| Cc1cc2ncn(-c3ccc(OC(C)C)cc3)c2cc1-c1ccc(OC(C)C)cc1 | < 3.3 | < 4.2 |
| Cc1cc2ncn(-c3ccc(OC(C)(C)C)cc3)c2cc1-c1ccc(OC(C)(C)O)cc1 | < 3.3 | < 3.3 |

test system: not listed separately; assay: (§1) Cytotoxicity against African green monkey Vero cells measured after 5 days; assay type: cell-based; settings: chlorocebus sabaeus, Vero cells; time 5 day

| SMILES | CC50 at 120 h [nM] |
| --- | --- |
| CC(C)Oc1ccc(-c2ccn3cnc(-c4ccc(OC(C)C)cc4)c3c2)cc1 | 7540 |

test system: Vero; assay: as §1; assay type: cell-based; settings: chlorocebus sabaeus, vero, 120 h; time 5 day

| SMILES | CC50 [nM] |
| --- | --- |
| Cc1c(-c2ccc(OC(C)C)cc2)ccc2ncc(-c3ccc(OC(C)C)cc3)n12 | 4190 |

biological target: CYP2C9 (Homo sapiens, UniProt P11712); assay: Inhibition of CYP2C9 (unknown origin) at 20 uM; assay type: ADME; settings: not given
Sequence (P11712 whole entry): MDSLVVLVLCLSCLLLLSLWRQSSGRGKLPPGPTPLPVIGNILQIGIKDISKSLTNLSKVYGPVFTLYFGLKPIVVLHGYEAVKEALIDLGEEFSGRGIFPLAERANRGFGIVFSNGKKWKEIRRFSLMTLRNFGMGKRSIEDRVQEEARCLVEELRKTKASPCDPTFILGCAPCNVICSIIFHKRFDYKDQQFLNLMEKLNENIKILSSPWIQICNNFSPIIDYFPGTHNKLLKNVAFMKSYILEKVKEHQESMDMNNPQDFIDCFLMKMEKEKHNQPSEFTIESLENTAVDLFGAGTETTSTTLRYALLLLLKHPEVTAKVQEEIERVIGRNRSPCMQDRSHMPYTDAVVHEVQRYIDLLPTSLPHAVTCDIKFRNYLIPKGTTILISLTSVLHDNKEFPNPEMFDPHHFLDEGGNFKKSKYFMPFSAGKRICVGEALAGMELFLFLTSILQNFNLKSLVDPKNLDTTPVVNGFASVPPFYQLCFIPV

| SMILES | inhibition at 20 µM [%] |
| --- | --- |
| Cc1cc2ncc(-c3ccc(OC(C)(C)C)cc3)n2cc1-c1ccc(OC(C)C)cc1 | < 21 |
| Cc1cc2ncn(-c3ccc(OC(C)C)cc3)c2cc1-c1ccc(OC(C)C)cc1 | < 21 |
| Cc1cc2ncc(-c3ccc(OC(C)C)cc3)n2cc1-c1ccc(OC(C)C)cc1 | < 21 |
| Cc1cc2ncn(-c3ccc(OC(C)(C)C)cc3)c2cc1-c1ccc(OC(C)(C)O)cc1 | < 21 |

test system: Lassa virus; assay: Antiviral activity against pseudotyped Lassa mammarenavirus; assay type: functional, organism-based; settings: Mammarenavirus lassaense

| SMILES | EC50 [nM] |
| --- | --- |
| CC(C)Oc1ccc(-c2cnc3ccc(-c4ccc(OCCN5CCOCC5)cc4)cn23)cc1 | > 25 |
| CC(C)Oc1ccc(-c2ccn3cnc(-c4ccc(OC(C)C)cc4)c3c2)cc1 | 20.9 |
| CC(C)Oc1ccc(-c2ccc3cnc(-c4ccc(OC(C)C)cc4)n3c2)cc1 | > 25 |
| Cc1c(-c2ccc(OC(C)C)cc2)ccc2ncc(-c3ccc(OC(C)C)cc3)n12 | 0.32 |
| CC(C)Oc1ccc(-c2ccc3ccn(-c4ccc(OC(C)C)cc4)c3c2)cc1 | > 25 |
| Cc1cc2ncc(-c3ccc(OC(C)(C)C)cc3)n2cc1-c1ccc(OC(C)C)cc1 | 0.68 |
| CC(C)Oc1ccc(-c2cnc3ccc(-c4ccc(OC(C)C)cc4F)cn23)cc1 | > 25 |
| Cc1cc2ncn(-c3ccc(OC(C)C)cc3)c2cc1-c1ccc(OC(C)C)cc1 | 0.65 |
| CC(C)Oc1ccc(-c2ccc3cnn(-c4ccc(OC(C)C)cc4)c3c2)cc1 | > 25 |
| Cc1cc2ncn(-c3ccc(OC(C)(C)C)cc3)c2cc1-c1ccc(OC(C)(C)O)cc1 | 4 |
| CC(C)Oc1ccc(-c2cnc3ccc(-c4ccc(C(N)=O)cc4)cn23)cc1 | > 25 |
| Cc1cc2nnn(-c3ccc(OC(C)C)cc3)c2cc1-c1ccc(OC(C)C)cc1 | 1.05 |

biological target: T1, CYP1A2 (Homo sapiens, UniProt P05177); assay: Inhibition of CYP1A2 (unknown origin) at 20 uM; assay type: ADME; settings: not given
T1 sequence (P05177 whole entry): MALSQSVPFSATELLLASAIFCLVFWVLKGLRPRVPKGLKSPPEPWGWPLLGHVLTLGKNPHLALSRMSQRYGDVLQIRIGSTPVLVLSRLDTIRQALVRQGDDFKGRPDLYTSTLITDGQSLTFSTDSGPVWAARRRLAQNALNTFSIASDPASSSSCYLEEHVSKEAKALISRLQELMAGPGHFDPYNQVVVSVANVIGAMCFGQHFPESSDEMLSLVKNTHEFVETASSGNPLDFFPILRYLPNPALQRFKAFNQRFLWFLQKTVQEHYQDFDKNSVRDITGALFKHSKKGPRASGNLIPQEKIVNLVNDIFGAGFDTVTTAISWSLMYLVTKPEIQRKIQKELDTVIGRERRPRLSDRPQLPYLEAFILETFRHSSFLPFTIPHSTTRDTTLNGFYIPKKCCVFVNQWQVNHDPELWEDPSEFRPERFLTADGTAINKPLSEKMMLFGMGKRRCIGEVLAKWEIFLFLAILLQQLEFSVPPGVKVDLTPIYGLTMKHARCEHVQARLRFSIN

| SMILES | inhibition at 20 µM [%] |
| --- | --- |
| Cc1cc2ncc(-c3ccc(OC(C)(C)C)cc3)n2cc1-c1ccc(OC(C)C)cc1 | < 21 |
| Cc1cc2ncn(-c3ccc(OC(C)C)cc3)c2cc1-c1ccc(OC(C)C)cc1 | < 21 |
| Cc1cc2ncc(-c3ccc(OC(C)C)cc3)n2cc1-c1ccc(OC(C)C)cc1 | < 21 |
| Cc1cc2ncn(-c3ccc(OC(C)(C)C)cc3)c2cc1-c1ccc(OC(C)(C)O)cc1 | < 21 |

biological target: CYP3A4 (Homo sapiens, UniProt P08684); assay: Inhibition of CYP3A4 (unknown origin) at 20 uM; assay type: ADME; settings: not given
Sequence (P08684 whole entry): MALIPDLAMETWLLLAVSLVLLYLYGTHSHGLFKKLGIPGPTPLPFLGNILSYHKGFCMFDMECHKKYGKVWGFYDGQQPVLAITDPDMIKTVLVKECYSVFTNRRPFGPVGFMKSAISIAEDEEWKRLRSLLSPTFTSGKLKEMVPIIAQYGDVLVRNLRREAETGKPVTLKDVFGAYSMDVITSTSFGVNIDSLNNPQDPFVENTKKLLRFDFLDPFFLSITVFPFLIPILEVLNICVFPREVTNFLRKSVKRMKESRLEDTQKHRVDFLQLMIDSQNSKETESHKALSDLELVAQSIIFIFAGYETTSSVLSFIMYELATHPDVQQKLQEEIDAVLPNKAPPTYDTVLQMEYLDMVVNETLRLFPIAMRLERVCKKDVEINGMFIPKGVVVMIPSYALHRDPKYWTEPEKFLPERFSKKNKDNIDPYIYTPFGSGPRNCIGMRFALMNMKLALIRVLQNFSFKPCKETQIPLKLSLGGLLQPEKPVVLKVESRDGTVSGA

| SMILES | inhibition at 20 µM [%] |
| --- | --- |
| Cc1cc2ncc(-c3ccc(OC(C)(C)C)cc3)n2cc1-c1ccc(OC(C)C)cc1 | < 21 |
| Cc1cc2ncn(-c3ccc(OC(C)C)cc3)c2cc1-c1ccc(OC(C)C)cc1 | 44 |
| Cc1cc2ncc(-c3ccc(OC(C)C)cc3)n2cc1-c1ccc(OC(C)C)cc1 | < 21 |
| Cc1cc2ncn(-c3ccc(OC(C)(C)C)cc3)c2cc1-c1ccc(OC(C)(C)O)cc1 | < 21 |

biological target: CYP2C19 (Homo sapiens, UniProt P33261); assay: Inhibition of CYP2C19 (unknown origin) at 20 uM; assay type: ADME; settings: not given
Sequence (P33261 whole entry): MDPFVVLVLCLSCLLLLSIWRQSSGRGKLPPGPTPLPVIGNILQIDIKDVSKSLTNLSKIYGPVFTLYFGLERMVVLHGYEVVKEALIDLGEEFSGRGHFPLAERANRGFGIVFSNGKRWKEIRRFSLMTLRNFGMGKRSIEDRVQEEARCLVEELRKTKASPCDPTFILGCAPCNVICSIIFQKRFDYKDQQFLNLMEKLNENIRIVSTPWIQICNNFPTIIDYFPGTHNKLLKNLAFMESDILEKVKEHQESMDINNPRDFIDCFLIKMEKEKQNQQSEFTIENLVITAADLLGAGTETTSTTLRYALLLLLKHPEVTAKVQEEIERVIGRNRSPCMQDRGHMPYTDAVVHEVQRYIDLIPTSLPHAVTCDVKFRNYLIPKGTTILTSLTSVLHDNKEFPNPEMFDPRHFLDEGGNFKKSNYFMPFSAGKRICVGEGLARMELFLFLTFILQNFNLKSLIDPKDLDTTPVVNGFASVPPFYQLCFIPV

| SMILES | inhibition at 20 µM [%] |
| --- | --- |
| Cc1cc2ncc(-c3ccc(OC(C)(C)C)cc3)n2cc1-c1ccc(OC(C)C)cc1 | < 21 |
| Cc1cc2ncn(-c3ccc(OC(C)C)cc3)c2cc1-c1ccc(OC(C)C)cc1 | < 21 |
| Cc1cc2ncc(-c3ccc(OC(C)C)cc3)n2cc1-c1ccc(OC(C)C)cc1 | < 21 |
| Cc1cc2ncn(-c3ccc(OC(C)(C)C)cc3)c2cc1-c1ccc(OC(C)(C)O)cc1 | < 21 |

test system: Machupo mammarenavirus; assay: Antiviral activity against pseudotyped Machupo virus; assay type: functional, organism-based; settings: Mammarenavirus machupoense

| SMILES | EC50 [nM] |
| --- | --- |
| CC(C)Oc1ccc(-c2cnc3ccc(-c4ccc(OCCN5CCOCC5)cc4)cn23)cc1 | > 25 |
| CC(C)Oc1ccc(-c2ccn3cnc(-c4ccc(OC(C)C)cc4)c3c2)cc1 | > 25 |
| CC(C)Oc1ccc(-c2ccc3cnc(-c4ccc(OC(C)C)cc4)n3c2)cc1 | > 25 |
| Cc1c(-c2ccc(OC(C)C)cc2)ccc2ncc(-c3ccc(OC(C)C)cc3)n12 | 0.16 |
| CC(C)Oc1ccc(-c2ccc3ccn(-c4ccc(OC(C)C)cc4)c3c2)cc1 | 20.6 |
| Cc1cc2ncc(-c3ccc(OC(C)(C)C)cc3)n2cc1-c1ccc(OC(C)C)cc1 | 0.17 |
| CC(C)Oc1ccc(-c2cnc3ccc(-c4ccc(OC(C)C)cc4F)cn23)cc1 | > 25 |
| Cc1cc2ncn(-c3ccc(OC(C)C)cc3)c2cc1-c1ccc(OC(C)C)cc1 | 0.17 |
| CC(C)Oc1ccc(-c2ccc3cnn(-c4ccc(OC(C)C)cc4)c3c2)cc1 | > 25 |
| Cc1cc2ncn(-c3ccc(OC(C)(C)C)cc3)c2cc1-c1ccc(OC(C)(C)O)cc1 | 0.12 |
| CC(C)Oc1ccc(-c2cnc3ccc(-c4ccc(C(N)=O)cc4)cn23)cc1 | > 25 |
| Cc1cc2nnn(-c3ccc(OC(C)C)cc3)c2cc1-c1ccc(OC(C)C)cc1 | 0.52 |

biological target: hERG (KCNH2) (Homo sapiens, UniProt Q12809); assay: Inhibition of human ERG at 3 uM relative to control; settings: not given
Sequence (Q12809 whole entry): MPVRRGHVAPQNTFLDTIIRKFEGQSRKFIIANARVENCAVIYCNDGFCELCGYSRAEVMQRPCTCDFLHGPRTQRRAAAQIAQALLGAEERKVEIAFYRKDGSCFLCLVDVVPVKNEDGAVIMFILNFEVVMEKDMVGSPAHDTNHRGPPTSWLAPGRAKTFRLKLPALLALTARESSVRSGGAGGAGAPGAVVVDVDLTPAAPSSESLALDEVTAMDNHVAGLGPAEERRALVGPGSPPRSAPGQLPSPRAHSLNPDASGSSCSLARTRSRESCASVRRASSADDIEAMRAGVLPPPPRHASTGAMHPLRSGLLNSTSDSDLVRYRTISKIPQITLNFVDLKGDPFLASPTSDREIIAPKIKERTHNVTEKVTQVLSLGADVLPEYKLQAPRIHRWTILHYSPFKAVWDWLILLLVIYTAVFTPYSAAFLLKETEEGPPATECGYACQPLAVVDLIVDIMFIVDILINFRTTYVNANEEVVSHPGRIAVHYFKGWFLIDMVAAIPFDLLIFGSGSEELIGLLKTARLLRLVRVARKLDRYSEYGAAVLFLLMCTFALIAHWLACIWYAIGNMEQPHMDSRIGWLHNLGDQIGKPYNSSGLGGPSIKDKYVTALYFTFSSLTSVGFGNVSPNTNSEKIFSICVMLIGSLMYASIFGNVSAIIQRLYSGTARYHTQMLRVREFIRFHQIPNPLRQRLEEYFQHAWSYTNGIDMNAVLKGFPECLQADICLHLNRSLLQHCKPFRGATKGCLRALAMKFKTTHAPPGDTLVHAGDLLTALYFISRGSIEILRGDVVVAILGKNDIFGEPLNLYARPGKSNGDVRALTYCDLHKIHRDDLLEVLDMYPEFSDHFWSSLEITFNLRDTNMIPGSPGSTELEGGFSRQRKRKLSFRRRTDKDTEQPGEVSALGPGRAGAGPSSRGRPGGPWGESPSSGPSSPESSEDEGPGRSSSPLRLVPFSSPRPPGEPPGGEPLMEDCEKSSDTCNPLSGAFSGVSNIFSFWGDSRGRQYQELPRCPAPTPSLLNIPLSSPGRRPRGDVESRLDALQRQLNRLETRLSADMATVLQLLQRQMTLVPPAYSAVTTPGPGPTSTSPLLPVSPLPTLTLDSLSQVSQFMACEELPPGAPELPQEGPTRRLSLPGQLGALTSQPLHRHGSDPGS

| SMILES | inhibition at 3 µM [%] |
| --- | --- |
| CC(C)Oc1ccc(-c2ccc3ncn(-c4ccc(OC(C)C)cc4)c3n2)cc1 | < 10 |
| CC(C)Oc1ccc(-c2ccc3nnn(-c4ccc(OC(C)C)cc4)c3c2)cc1 | 17 |
| CC(C)Oc1ccc(-c2ccc3nnc(-c4ccc(OC(C)C)cc4)n3c2)cc1 | 57 |
| CC(C)Oc1ccc(-c2ccc3ncc(-c4ccc(OC(C)(C)C)cc4)n3c2)cc1 | 48 |
| CC(C)Oc1ccc(-c2ccc3ncc(-c4ccc(OC(C)C)cc4)n3c2)cc1 | 89 |
| Cc1cc2ncc(-c3ccc(OC(C)(C)C)cc3)n2cc1-c1ccc(OC(C)C)cc1 | < 10 |
| CC(C)Oc1ccc(-c2ccc3ncn(-c4ccc(OC(C)C)cc4)c3c2)cc1 | 30 |
| Cc1cc2ncn(-c3ccc(OC(C)C)cc3)c2cc1-c1ccc(OC(C)C)cc1 | < 10 |
| Cc1cc2ncc(-c3ccc(OC(C)C)cc3)n2cc1-c1ccc(OC(C)C)cc1 | 14 |
| CC(C)Oc1ccc(-c2cnc3ncc(-c4ccc(OC(C)C)cc4)n3c2)cc1 | 37 |
| Cc1cc2ncn(-c3ccc(OC(C)(C)C)cc3)c2cc1-c1ccc(OC(C)(C)O)cc1 | < 10 |
| Cc1cc2nnn(-c3ccc(OC(C)C)cc3)c2cc1-c1ccc(OC(C)C)cc1 | < 10 |

test system: Junin virus; assay: Antiviral activity against pseudotyped Junin virus; assay type: functional, organism-based; settings: Mammarenavirus juninense

| SMILES | EC50 [nM] |
| --- | --- |
| CC(C)Oc1ccc(-c2cnc3ccc(-c4ccc(OCCN5CCOCC5)cc4)cn23)cc1 | > 25 |
| CC(C)Oc1ccc(-c2ccn3cnc(-c4ccc(OC(C)C)cc4)c3c2)cc1 | 21.8 |
| CC(C)Oc1ccc(-c2ccc3cnc(-c4ccc(OC(C)C)cc4)n3c2)cc1 | > 25 |
| Cc1c(-c2ccc(OC(C)C)cc2)ccc2ncc(-c3ccc(OC(C)C)cc3)n12 | 0.17 |
| CC(C)Oc1ccc(-c2ccc3ccn(-c4ccc(OC(C)C)cc4)c3c2)cc1 | 0.89 |
| Cc1cc2ncc(-c3ccc(OC(C)(C)C)cc3)n2cc1-c1ccc(OC(C)C)cc1 | 0.3 |
| CC(C)Oc1ccc(-c2cnc3ccc(-c4ccc(OC(C)C)cc4F)cn23)cc1 | > 25 |
| Cc1cc2ncn(-c3ccc(OC(C)C)cc3)c2cc1-c1ccc(OC(C)C)cc1 | 0.11 |
| CC(C)Oc1ccc(-c2ccc3cnn(-c4ccc(OC(C)C)cc4)c3c2)cc1 | 14 |
| Cc1cc2ncn(-c3ccc(OC(C)(C)C)cc3)c2cc1-c1ccc(OC(C)(C)O)cc1 | 1 |
| CC(C)Oc1ccc(-c2cnc3ccc(-c4ccc(C(N)=O)cc4)cn23)cc1 | > 25 |
| Cc1cc2nnn(-c3ccc(OC(C)C)cc3)c2cc1-c1ccc(OC(C)C)cc1 | 0.21 |

biological target: CYP2D6 (Homo sapiens, UniProt P10635); assay: Inhibition of CYP2D6 (unknown origin) at 20 uM; assay type: ADME; settings: not given
Sequence (P10635 whole entry): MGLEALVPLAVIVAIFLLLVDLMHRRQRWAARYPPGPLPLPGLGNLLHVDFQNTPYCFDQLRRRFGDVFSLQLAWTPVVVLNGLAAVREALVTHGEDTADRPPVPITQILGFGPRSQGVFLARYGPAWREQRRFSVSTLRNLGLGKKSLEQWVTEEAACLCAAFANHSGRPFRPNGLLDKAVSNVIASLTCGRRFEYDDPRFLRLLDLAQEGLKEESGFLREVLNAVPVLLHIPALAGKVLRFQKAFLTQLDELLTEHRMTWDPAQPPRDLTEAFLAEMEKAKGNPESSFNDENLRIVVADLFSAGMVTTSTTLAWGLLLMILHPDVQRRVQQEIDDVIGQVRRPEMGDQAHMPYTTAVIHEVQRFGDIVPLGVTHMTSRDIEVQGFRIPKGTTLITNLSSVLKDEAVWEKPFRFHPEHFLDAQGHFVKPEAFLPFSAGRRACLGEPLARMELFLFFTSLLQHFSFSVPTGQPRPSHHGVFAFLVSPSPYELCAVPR

| SMILES | inhibition at 20 µM [%] |
| --- | --- |
| Cc1cc2ncc(-c3ccc(OC(C)(C)C)cc3)n2cc1-c1ccc(OC(C)C)cc1 | < 21 |
| Cc1cc2ncn(-c3ccc(OC(C)C)cc3)c2cc1-c1ccc(OC(C)C)cc1 | < 21 |
| Cc1cc2ncc(-c3ccc(OC(C)C)cc3)n2cc1-c1ccc(OC(C)C)cc1 | < 21 |
| Cc1cc2ncn(-c3ccc(OC(C)(C)C)cc3)c2cc1-c1ccc(OC(C)(C)O)cc1 | < 21 |

test system: Lassa virus; assay: Antiviral activity against Lassa virus by virus yield reduction assay; assay type: functional, organism-based; settings: Mammarenavirus lassaense

| SMILES | EC50 [nM] | EC90 [nM] |
| --- | --- | --- |
| Cc1cc2ncc(-c3ccc(OC(C)(C)C)cc3)n2cc1-c1ccc(OC(C)C)cc1 | < 0.3 | 0.87 |
| Cc1cc2ncn(-c3ccc(OC(C)C)cc3)c2cc1-c1ccc(OC(C)C)cc1 | 1.2 | 2.1 |
| Cc1cc2ncn(-c3ccc(OC(C)(C)C)cc3)c2cc1-c1ccc(OC(C)(C)O)cc1 | < 0.3 | < 0.3 |

test system: Junin virus; assay: Antiviral activity against Junin virus by virus yield reduction assay; assay type: functional, organism-based; settings: Mammarenavirus juninense

| SMILES | EC50 [nM] | EC90 [nM] |
| --- | --- | --- |
| Cc1cc2ncc(-c3ccc(OC(C)(C)C)cc3)n2cc1-c1ccc(OC(C)C)cc1 | 0.6 | 1.2 |
| Cc1cc2ncn(-c3ccc(OC(C)(C)C)cc3)c2cc1-c1ccc(OC(C)(C)O)cc1 | 0.9 | 6.2 |
| Cc1cc2nnn(-c3ccc(OC(C)C)cc3)c2cc1-c1ccc(OC(C)C)cc1 | < 1 | 2.4 |
